Source: patent US12155103B2, “Electrochemical storage devices comprising chelated metals” (The Regents of the University of Colorado, a body corporate, priority 2019, dated 2024)
Where two headings read alike, the source gives them in different places.

What was measured:
[1] = Cyclic voltammetry and kinetic analysis on glassy carbon electrode; type: physicochemical; conditions: for E^0 / Heterogenous Reduction Rate Constant (k^0) / Diffusion Coefficient (Do): glassy carbon electrode
Description: Cyclic voltammetry was conducted using a Gamry Interface 1000 potentiostat, an Ag/AgCl aqueous reference electrode (3 M NaCl filling solution), a Pt wire counter electrode, and a 3-mm-diameter glassy carbon electrode. Half-cell experiments were conducted on a solution containing 5 mM K[Cr(PDTA)], 5 mM K4Fe(CN)6, and 0.125 M K2B4O7 at pH 9.
For an irreversible reaction, the peak current, ip, is given by equation (1).
[formula] where ip is in amperes, A is the electrode area (cm^2), CO° is the bulk concentration of oxidant (moles cm^−3), v is the potential sweep rate (V s^−1), DO is the diffusion coefficient of the oxidant, α is the charge transfer coefficient, and na is the number of […] involved in the rate-determining step. This equation reduces, at 25° C. to equation (2). ip=2.99*10^5n(αna)^1/2ACO^0DO^1/2v^1/2 (2) ip vs. v^1/2 was plotted, giving a straight line, with the slope being proportional to DO. Assuming an αna value of ½ allowed for the solving of DO. For a totally irreversible peak, the peak potential, Ep, is a function of scan rate, the difference between Ep and the formal potential, E^0′, being related to the standard heterogeneous rate constant, k°. The peak current can be expressed as show in equation (3).
[formula] Ln(ip) vs. (Ep−E°′), at different scan rates was plotting, with the intercept being proportional to and allowing solving for k°. E°′ was found in literature to be −1.31 V vs Ag/AgCl. The bulk concentration was 0.005 M, and na was 1 as there is only 1 electron being transferred. The area of the electrode is 0.0707 cm^2 from a 3 mm diameter glassy carbon electrode. Scan rates were done at 25, 50, 100, 200, and 500 mV s^−1. The slope of ip vs. v^1/2 was 0.0747, and the intercept of ln(ip) vs. (Ep−E°′) was −13.527.
Half-cell measurements were made using cyclic voltammetry (CV), which was conducted using a Gamry Interface 1000 potentiostat, an Ag/AgCl aqueous reference electrode (3 M NaCl filling solution), a Pt wire counter electrode, and a 3-mm-diameter glassy carbon working electrode, unless otherwise noted. Solutions were first sparged with an inert gas, for example N2, helium, neon, or argon, or combinations thereof, for at least 15 minutes and then kept under a blanket of an inert gas, such as N2, helium, neon, or argon, or combinations thereof, while tests were performed. All testing was performed at ambient temperatures. For carbon paper cyclic voltammetry experiments, the same setup was used as with the glassy carbon electrode, but the working electrode was a piece of carbon paper. For all chromium complexes and Fe(CN)6 solution 5 mM solutions were utilized for all CV experiments except those utilizing carbon paper electrodes which utilized 50 mM solutions. Other metal chelate complexes have concentrations that are specified in the figure captions.
Cyclic voltammetry (CV) was performed to compare the electrochemical behavior of FeDTPA and CrPDTA with their respective unchelated metal ions. […] Compared to their non-chelated counterparts, a greater electrochemical reversibility is observed in the chelated over the non-chelated metals (FIG. 32).

[2] = cited from earlier work; for reduction potential E^0: literature or previously reported values
[3] = cited from earlier work
[4] = Stability of iron-chelate complexes at pH 9
[5] = Maximum solubility at room temperature (saturated or concentrated solution, UV-Vis at 506 nm; bulk electrolysis for K2FeDTPA); type: physicochemical
Description: A saturated solution of KCrPDTA was prepared by dissolving KCrPDTA crystals in minimal DI water at room temperature such that crystals remain undissolved. The solution was agitated for 1 day. […] For the Na^+ cation with CrEDTA, the solubility was determined from a concentrated impure solution containing 3:1 NaCl. […] For the K2 with Fe-DTPA, the solubility was determined from a concentrated impure solution containing 3:1 KCl.

[6] = cited from earlier work; remark: listed apart in the source

Row | Molecule | E^0 [1] | Heterogenous Reduction Rate Constant (k^0) [1] | Binding Constant (Fe^+2) [3] | Binding Constant (Fe^+3) [3] | Stability at pH 9 [4] | other results
1 | [Cl][Cr]([Cl])[Cl] [CrCl3] | −0.64 V vs Ag/AgCl | 10 ×10⁻⁶ cm/s | – | – | – | –
2 | O=C(O)CN(CCN(CC(=O)O)CC(=O)O)CC(=O)O.[Cr] [CrEDTA] | – | – | – | – | – | Cr^3+/2+ reduction potential ([2]; near neutral pH): −0.99 V vs. SHE
3 | O=C(O)CN(CCN(CC(=O)O)CC(=O)O)CCN(CC(=O)O)CC(=O)O [DTPA, diethylenetriaminepentaacetic acid] | – | – | 16.55 | 28.60 | – | –
4 | [Fe+2].c1ccc(-c2ccccn2)nc1.c1ccc(-c2ccccn2)nc1.c1ccc(-c2ccccn2)nc1 [Fe(bpy)3] | – | – | 4.2 | 16.29 | Insoluble | reduction potential E^0 [2]: +0.903 V vs. Ag/AgCl
5 | [Cl][Fe]([Cl])[Cl] [FeCl3] | 0.55 V vs Ag/AgCl | 3.4 ×10⁻⁶ cm/s | – | – | – | reduction potential E^0 [2]: 0.55 V vs. Ag/AgCl; Diffusion Coefficient (Do) [1]: 7.55 10^−6 cm^2 s^−1; heterogeneous reduction rate constant k^0 ([1]; glassy carbon, 3 M HCl): 3.4e-06 cm/s
6 | O=C([O-])CN(CCN(CC(=O)[O-])CC(=O)[O-])CCN(CC(=O)[O-])CC(=O)[O-].[Fe+3].[K+].[K+] [FeDTPA K2] | −0.15 V vs Ag/AgCl | 15.5 ×10⁻⁶ cm/s | – | – | – | maximum solubility / highest concentration cycled ([5]; pH 9, 20° C., limited by viscosity): 1350 mM; Max Solubility at RT ([5]; room temperature): 1350 mM; Diffusion Coefficient (Do) [1]: 2.41 10^−6 cm^2 s^−1
7 | O=C([O-])CN(CCN(CC(=O)[O-])CC(=O)[O-])CC(=O)[O-].[Fe+3].[Na+] [FeEDTA] | – | – | 14.33 | 25.10 | Dimerizes | –
8 | O=C([O-])CN(CCO)CCN(CC(=O)[O-])CC(=O)[O-].[Fe+3] [FeHEDTA] | – | – | 12.2 | 19.7 | Dimerizes | –
9 | Mn EDTA | – | – | – | – | – | RFB Electrolyte solubility ([6]; pH 3): 400 mM; RFB Electrolyte solubility ([6]; pH 4.5): 400 mM; RFB Electrolyte solubility ([6]; pH 6): 400 mM; RFB Electrolyte solubility ([6]; pH 6.6): 400 mM; RFB Electrolyte solubility ([6]; pH 8.0): 400 mM
